Measurements from patent publication US20240041042A1, “1-(PYRIDYL)-5-AZINYLPYRAZOLE DERIVATIVES, AND THEIR USE FOR CONTROL OF UNDESIRED PLANT GROWTH” (Bayer Aktiengesellschaft, priority 2020, published 2024).

Columns and labels:
Assay type in all cases: in vivo
[1] = tested on: Pharbitis purpurea (PHBPU); test: Post-emergence herbicidal action against PHBPU; conditions: dosage 320 g/ha
Outline: (§1)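 Doses of 320 g/ha or lower, suffixes a, b and c marking different dosages, were applied post-emergence at the one-leaf stage in 600 l/ha water with 0.5% additive. Damage was assessed visually after about 3 weeks in the greenhouse.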

Viola tricolor (VIOTR) [2] = test: Pre-emergence herbicidal action against VIOTR
Outline: (§2)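 Seeds sown in pots and covered with soil; WP or EC formulations sprayed onto the soil surface at 600 l/ha water with 0.5% additive, at 320 g/ha or lower. Greenhouse growth for about 3 weeks, then visual scoring as % effect against untreated controls (100% = plants dead).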

[3] = tested on: Polygonum convolvulus (POLCO); test: Pre-emergence herbicidal action against POLCO
Outline: as §2

Oryza sativa (ORYSA) = conditions: crop plant compatibility, 80 g/ha, effect in comparison to untreated controls
Outline: (§3)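 Foliar application at the one-leaf stage: WP/EC formulation, 0.5% additive, 600 l/ha water. Greenhouse-grown in sandy loam. Endpoint is visual % injury relative to untreated controls at about 3 weeks.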

[4] = tested on: Verconica persica (VERPE); test: Post-emergence herbicidal action against VERPE
Outline: as §1

Setaria viridis (SETVI) [5] = test: Pre-emergence herbicidal action against SETVI
Outline: as §2

Avena fatua (AVEFA) [6] = test: Post-emergence herbicidal action against AVEFA; conditions: visual rating about 3 weeks after treatment
Outline: as §1

[7] = tested on: Echinochloa crus-galli (ECHCG); test: Pre-emergence herbicidal action against ECHCG
Outline: as §2

[8] = tested on: Alopecurus myosuroides (ALOMY); test: Post-emergence herbicidal action against ALOMY; conditions: visual rating about 3 weeks after treatment vs untreated controls (100% = plants have died, 0% = like control plants)
Outline: as §1

[9] = tested on: Amaranthus retroflexus (AMARE); test: Pre-emergence herbicidal action against AMARE; conditions: visual scoring after about 3 weeks vs untreated controls
Outline: as §2

[10] = tested on: Verconica persica (VERPE); test: Pre-emergence herbicidal action against VERPE; conditions: dosage 320 g/ha
Outline: as §2

Viola tricolor (VIOTR) [11] = test: Post-emergence herbicidal action against VIOTR
Outline: as §1

Lolium rigidum (LOLRI) [12] = test: Pre-emergence herbicidal action against LOLRI
Outline: as §2

Setaria viridis (SETVI) [13] = test: Post-emergence herbicidal action against SETVI
Outline: as §1

[14] = tested on: Amaranthus retroflexus (AMARE); test: Post-emergence herbicidal action against AMARE
Outline: as §1

[15] = tested on: Abutilon theophrasti (ABUTH); test: Post-emergence herbicidal action against ABUTH; conditions: visual rating about 3 weeks after treatment vs untreated controls (100% = plants have died, 0% = like control plants)
Outline: as §1

[16] = tested on: Alopecurus myosuroides (ALOMY); test: Pre-emergence herbicidal action against ALOMY; conditions: scored visually after about 3 weeks, 100% = plants have died
Outline: as §2

[17] = tested on: Echinochloa crus-galli (ECHCG); test: Post-emergence herbicidal action against ECHCG
Outline: as §1

Lolium rigidum (LOLRI) [18] = test: Post-emergence herbicidal action against LOLRI
Outline: as §1

Avena fatua (AVEFA) [19] = test: Pre-emergence herbicidal action against AVEFA; conditions: visual scoring after about 3 weeks vs untreated controls
Outline: as §2

[20] = tested on: Matricaria inodora (MATIN); test: Pre-emergence herbicidal action against MATIN; conditions: dosage 320 g/ha
Outline: as §2

[21] = tested on: Abutilon theophrasti (ABUTH); test: Pre-emergence herbicidal action against ABUTH; conditions: Dosage column 320 g/ha (title prints 3200 g/ha); scored visually after about 3 weeks; 100% = plants have died
Description: Seeds of monocotyledonous and dicotyledonous weed plants and crop plants are placed in plastic or organic planting pots and covered with soil. The compounds of the invention, formulated in the form of wettable powders (WP) or as emulsion concentrates (EC), are then applied to the surface of the covering soil as aqueous suspension or emulsion with addition of 0.5% additive at a water application rate equivalent to 600 l/ha. After the treatment, the pots are placed in a greenhouse and kept under good growth conditions for the trial plants. After about 3 weeks, the effect of the preparations is scored visually in comparison with untreated controls as percentages. For example, 100% activity=the plants have died, 0% activity=like control plants.
Tables A1 to A13 below show the effects of selected compounds of the general formula (I) on various harmful plants and at an application rate corresponding to 320 g/ha or lower, which were obtained by the experimental procedure mentioned above. The appendices “a”, “b” and “c” give differentiation by dosage used with otherwise the same harmful plants tested.

Zea mays (ZEAMX) = conditions: crop plant compatibility, 80 g/ha, effect vs untreated controls
Outline: as §3

[22] = tested on: Polygonum convolvulus (POLCO); test: Post-emergence herbicidal action against POLCO
Outline: as §1

[23] = 80 g/ha, visual rating about 3 weeks after treatment vs untreated controls (100% = plants have died, 0% = like control plants)
[24] = 320 g/ha, visual rating about 3 weeks after treatment

Row | Structure (SMILES) | Post-emergence action against PHBPU in % [1] [%] | Pre-emergence action against VIOTR in % (Viola tricolor (VIOTR) [2]; 320 g/ha, Viola tricolor) [%] | Pre-emergence action against VIOTR in % (Viola tricolor (VIOTR) [2]; dosage 80 g/ha) [%] | Pre-emergence action against POLCO in % ([3]; dosage 320 g/ha) [%] | Post-emergence action against VERPE in % ([4]; 320 g/ha, VERPE) [%] | Post-emergence action against VERPE in % ([4]; dosage 80 g/ha) [%] | Pre-emergence action against SETVI in % (Setaria viridis (SETVI) [5]; dosage 80 g/ha) [%] | Pre-emergence action against SETVI in % (Setaria viridis (SETVI) [5]; dosage 320 g/ha) [%] | Post-emergence action against AVEFA in % (Avena fatua (AVEFA) [6]; 320 g/ha) [%] | Pre-emergence action against ECHCG in % ([7]; dosage 320 g/ha) [%] | Post-emergence action against ALOMY in % ([8]; 80 g/ha) [%] | Post-emergence action against ALOMY in % ([8]; 320 g/ha) [%] | Pre-emergence action against AMARE in % ([9]; 80 g/ha) [%] | Pre-emergence action against AMARE in % ([9]; 320 g/ha) [%] | Pre-emergence action against VERPE in % [10] [%] | Post-emergence action against VIOTR in % (Viola tricolor (VIOTR) [11]; 80 g/ha) [%] | Post-emergence action against VIOTR in % (Viola tricolor (VIOTR) [11]; 320 g/ha) [%] | Pre-emergence action against LOLRI in % (Lolium rigidum (LOLRI) [12]; dosage 80 g/ha) [%] | Pre-emergence action against LOLRI in % (Lolium rigidum (LOLRI) [12]; dosage 320 g/ha) [%] | Post-emergence action against SETVI in % (Setaria viridis (SETVI) [13]; dosage 80 g/ha) [%] | further results
1 | COC(=O)[C@@H](C)Oc1nn(-c2ccnc(Cl)c2)c(-c2ccc(F)nc2)c1Br [III-22] | 80 | 100 | 90 | 100 | 90 | 80 | 100 | 100 | 100 | 100 | 100 | 100 | 90 | 100 | 100 | 90 | 90 | 100 | 100 | 100 | Post-emergence action against ORYSA in % (Oryza sativa (ORYSA)): 0%; Post-emergence action against AVEFA in % (Avena fatua (AVEFA) [6]; 80 g/ha): 100%; Pre-emergence action against ECHCG in % ([7]; dosage 80 g/ha): 100%; Post-emergence action against SETVI in % (Setaria viridis (SETVI) [13]; dosage 320 g/ha): 100%; Post-emergence action against AMARE in % [14, 23]: 90%; Post-emergence action against AMARE in % [14, 24]: 90%; Post-emergence action against ABUTH in % ([15]; 80 g/ha): 90%; Post-emergence action against ABUTH in % ([15]; 320 g/ha): 90%; Pre-emergence action against ALOMY ([16]; 80 g/ha): 100%; Pre-emergence action against ALOMY ([16]; 320 g/ha): 100%; Post-emergence action against ECHCG in % ([17]; dosage 80 g/ha): 100%; Post-emergence action against ECHCG in % ([17]; dosage 320 g/ha): 100%; Post-emergence action against LOLRI in % (Lolium rigidum (LOLRI) [18]; dosage 320 g/ha): 100%; Pre-emergence action against AVEFA in % (Avena fatua (AVEFA) [19]; 80 g/ha): 80%; Pre-emergence action against AVEFA in % (Avena fatua (AVEFA) [19]; 320 g/ha): 100%; Pre-emergence action against MATIN in % [20]: 100%; Pre-emergence action against ABUTH [21]: 100%
2 | CCOC(=O)CNC(=O)COc1nn(-c2ncccc2F)c(-c2ccc(OC)nc2)c1Br [Example I-48] | 90 | 100 | 100 | 90 | 90 | 90 | 100 | 100 | 100 | 100 | 100 | 100 | 90 | 100 | 100 | 80 | 90 | 100 | 100 | 80 | Pre-emergence action against POLCO in % ([3]; dosage 80 g/ha): 90%; Post-emergence action against ZEAMX in % (Zea mays (ZEAMX)): 20%; Post-emergence action against SETVI in % (Setaria viridis (SETVI) [13]; dosage 320 g/ha): 80%; Post-emergence action against AMARE in % [14, 23]: 80%; Post-emergence action against AMARE in % [14, 24]: 80%; Post-emergence action against ABUTH in % ([15]; 80 g/ha): 90%; Post-emergence action against ABUTH in % ([15]; 320 g/ha): 90%; Post-emergence action against POLCO in % ([22]; dosage 80 g/ha): 80%; Post-emergence action against POLCO in % ([22]; dosage 320 g/ha): 90%; Pre-emergence action against ALOMY ([16]; 80 g/ha): 80%; Pre-emergence action against ALOMY ([16]; 320 g/ha): 100%; Post-emergence action against ECHCG in % ([17]; dosage 80 g/ha): 80%; Post-emergence action against ECHCG in % ([17]; dosage 320 g/ha): 90%; Post-emergence action against LOLRI in % (Lolium rigidum (LOLRI) [18]; dosage 320 g/ha): 80%; Pre-emergence action against AVEFA in % (Avena fatua (AVEFA) [19]; 320 g/ha): 100%; Pre-emergence action against MATIN in % [20]: 100%; Pre-emergence action against ABUTH [21]: 80%
3 | COC(=O)CNC(=O)[C@@H](C)Oc1nn(-c2ccccn2)c(-c2ccc(F)nc2)c1Cl [Example I-339] | 80 | 100 | 100 | 100 | 90 | 80 | 100 | 100 | 90 | 100 | 90 | 100 | 100 | 100 | 100 | 90 | 90 | 100 | 100 | 90 | Pre-emergence action against POLCO in % ([3]; dosage 80 g/ha): 90%; Post-emergence action against ORYSA in % (Oryza sativa (ORYSA)): 0%; Post-emergence action against AVEFA in % (Avena fatua (AVEFA) [6]; 80 g/ha): 90%; Post-emergence action against SETVI in % (Setaria viridis (SETVI) [13]; dosage 320 g/ha): 90%; Post-emergence action against AMARE in % [14, 23]: 90%; Post-emergence action against AMARE in % [14, 24]: 90%; Post-emergence action against ABUTH in % ([15]; 80 g/ha): 80%; Post-emergence action against ABUTH in % ([15]; 320 g/ha): 90%; Post-emergence action against POLCO in % ([22]; dosage 80 g/ha): 90%; Post-emergence action against POLCO in % ([22]; dosage 320 g/ha): 90%; Pre-emergence action against ALOMY ([16]; 80 g/ha): 100%; Pre-emergence action against ALOMY ([16]; 320 g/ha): 100%; Post-emergence action against ECHCG in % ([17]; dosage 80 g/ha): 90%; Post-emergence action against ECHCG in % ([17]; dosage 320 g/ha): 90%; Post-emergence action against LOLRI in % (Lolium rigidum (LOLRI) [18]; dosage 80 g/ha): 90%; Post-emergence action against LOLRI in % (Lolium rigidum (LOLRI) [18]; dosage 320 g/ha): 90%; Pre-emergence action against AVEFA in % (Avena fatua (AVEFA) [19]; 80 g/ha): 100%; Pre-emergence action against AVEFA in % (Avena fatua (AVEFA) [19]; 320 g/ha): 100%; Pre-emergence action against MATIN in % [20]: 100%; Pre-emergence action against ABUTH [21]: 90%
